Structures can show the parent of a compound that is named as a salt.
System: TGFβ signal
Experiment: TGFβ signal inhibitory activity, (SBE)4-Luc luciferase reporter in A549 cells
Assay type: cell-based, human
Conditions: TGFβ-1 2 ng/ml, A549 (SBE)4-Luc; for inhibition at 3 µM / inhibition at 10 µM: Homo sapiens, A549, 4 h; for TGFβ inhibition, %: 4 hr
Description: The TGFβ signal inhibitory activity of compounds according to the present invention was evaluated according to the method described in J. Boil. Chem., 273, 21145-21152 (1998). Specifically, a luciferase gene driving by four tandem binding sequences of Smad2/3, which are TGFβ signal transfer factors was used as a reporter gene ((SBE)4-Luc). This reporter gene was introduced into human lung cancer epithelial cells (A549) (available from ATCC) to establish a stable cell line expressing its gene. A test compound and TGFβ-1 (2 ng/ml) were added to the cells, and the mixture was cultured for 4 hr. Compounds according to the present invention synthesized in the above working examples were used as the test compound. After the culture, the luciferase activity of cells was measured by a chemiluminescence method (Steady Glo (trademark) luciferase assay system available from Promega). Likewise, the luciferase activity was measured for control cells, that is, cells which had been cultured with the addition of TGFβ only, and cells which had been cultured without the addition of TGFβ and the test compound. The TGFβ inhibition rate (%) was calculated based on the results of measurement according to the following equation: TGFβ inhibition rate (%)=(A−B)/(A−C)×100 wherein A, B and C have the following respective meanings: A: luciferase activity in the case where TGFβ1 was added and the test compound was not added (relative luciferase unit); B: luciferase activity in the case where both TGFβ1 and the test compound were added (relative luciferase unit); and C: luciferase activity in the case where neither TGFβ1 nor the test compound was added (relative luciferase unit). The test was carried out for each of a test compound concentration of 3 μM and a test compound concentration of 10 μM. For given test compounds, the test was further carried out for a test compound concentration of 1 μM.

Row | SMILES | inhibition at 3 µM (test compound 3 μM) [%] | inhibition at 10 µM (test compound 10 μM) [%] | TGFβ inhibition, % (test compound 3 μM) [%] | TGFβ inhibition, % (test compound 10 μM) [%]
1 | COc1cc2c(Oc3cc4ccccc4nc3C)ccnc2cc1OCCN1CCOCC1 [Compound 365, 6-Methoxy-4-(2-methyl-quinolin-3-yloxy)-7-(2-morpholin-4-yl-ethoxy)-quinoline] | 100 | 100 |  | 
2 | C=CCO/N=C(\C)c1cc(C)c(C)cc1Oc1ccnc2cc(OC)c(OC)cc12 [Compound 197, 1-[2-(6,7-Dimethoxy-quinolin-4-yloxy)-4,5-dimethyl-phenyl]-ethanone o-allyl-oxime] | 40 |  |  | 
3 | COc1cc2nccc(Oc3ccc(F)nc3I)c2cc1OC [Compound 211, 4-(6-Fluoro-2-iodo-pyridin-3-yloxy)-6,7-dimethoxy-quinoline] | 87 | 100 |  | 
4 | COc1ccc(Oc2ccnc3cc(OC)c(OC)cc23)c(C(C)=O)c1.Cl [Compound 177, 1-[2-(6,7-Dimethoxy-quinolin-4-yloxy)-5-methoxy-phenyl]-ethanone hydrochloride] |  |  | 94 | 100
5 | COc1cc2nccc(Oc3cc(C)c(C)cc3C(=O)c3ccccc3)c2cc1OC [Compound 76, {2-[(6,7-Dimethoxy-4-quinolyl)oxy]-4,5-dimethylphenyl}-(phenyl)methanone hydrochloride] | 95 | 100 |  | 
6 | COc1cc2nccc(Oc3ccc(C)cc3C(=O)c3ccccc3)c2cc1OC.Cl [Compound 72, {2-[(6,7-Dimethoxy-4-quinolyl)oxy]-5-methylphenyl}-(phenyl)methanone hydrochloride] |  |  | 98 | 100
7 | COc1cc2nccc(Oc3ccccc3C(=O)c3ccccc3)c2cc1OC.Cl [Compound 63, {2-[(6,7-Dimethoxy-4-quinolyl)oxy]-phenyl}(phenyl)-methanone hydrochloride] |  |  | 57 | 91
8 | COc1cc2nccc(Oc3ccc(Cl)cc3C(=O)c3ccccc3)c2cc1OC [Compound 68, {5-Chloro-2-[(6,7-dimethoxy-4-quinolyl)oxy]phenyl}-(phenyl)methanone] | 89 | 100 |  | 
9 | COc1cc2nccc(Oc3ccc(C)cc3C(=O)c3ccccc3)c2cc1OC [Compound 71, {2-[(6,7-Dimethoxy-4-quinolyl)oxy]-5-methylphenyl}-(phenyl)methanone] | 79 | 100 |  | 
10 | COc1cc2c(Oc3cc(C)c(C)cc3C(C)=O)ccnc2cc1OCCCN1CCOCC1.Cl.Cl [Compound 320, 1-{2-[6-Methoxy-7-(3-morpholin-4-yl-propoxy)-quinolin-4-yloxy]-4,5-dimethyl-phenyl}-ethanone hydrochloride] |  |  | 100 | 100
11 | COc1cc2nccc(Oc3cc(C)c(C)cc3/C(C)=N/O)c2cc1OC [Compound 195, 1-[2-(6,7-Dimethoxy-quinolin-4-yloxy)-4,5-dimethyl-phenyl]-ethanone oxime] |  | 100 |  | 
12 | COc1cc2c(Oc3cc4ccccc4nc3C)ccnc2cc1OCCN1CCOCC1.Cl.Cl.Cl [Compound 366, 6-Methoxy-4-(2-methyl-quinolin-3-yloxy)-7-(2-morpholin-4-yl-ethoxy)-quinoline hydrochloride] |  |  | 100 | 100
13 | COc1ccc(Oc2ccnc3cc(OC)c(OC)cc23)c(C(C)=O)c1 [Compound 36, 1-{2-[(6,7-Dimethoxy-4-quinolyl)oxy]-5-methoxyphenyl}-1-ethanone] | 95 | 100 |  | 
14 | COc1cc2nccc(Oc3ccccc3C(=O)c3ccccc3)c2cc1OC [Compound 62, {2-[(6,7-Dimethoxy-4-quinolyl)oxy]-phenyl}(phenyl)-methanone] | 43 | 85 |  | 
15 | COc1cc2c(Oc3cc(C)c(C)cc3C(C)=O)ccnc2cc1OCCCN1CCOCC1 [Compound 319, 1-{2-[6-Methoxy-7-(3-morpholin-4-yl-propoxy)-quinolin-4-yloxy]-4,5-dimethyl-phenyl}-ethanone] |  | 100 |  | 
16 | COc1cc2nccc(Oc3ccc(Cl)cc3C(=O)c3ccccc3)c2cc1OC.Cl [Compound 69, {5-Chloro-2-[(6,7-dimethoxy-4-quinolyl)oxy]phenyl}-(phenyl)methanone hydrochloride] |  |  | 100 | 100
